Results as given in US20240327382A1 (ALMAC DISCOVERY LIMITED, priority 2021, published 2024).
Where a name gives a salt, the structure may show the parent alone.

Target: T1, Full-length USP19 (Homo sapiens, UniProt O94966)
T1 construct: Full-length USP19 was purchased from Boston Biochem (E-576); purchased Boston Biochem E-576
T1 sequence (O94966 1-1318): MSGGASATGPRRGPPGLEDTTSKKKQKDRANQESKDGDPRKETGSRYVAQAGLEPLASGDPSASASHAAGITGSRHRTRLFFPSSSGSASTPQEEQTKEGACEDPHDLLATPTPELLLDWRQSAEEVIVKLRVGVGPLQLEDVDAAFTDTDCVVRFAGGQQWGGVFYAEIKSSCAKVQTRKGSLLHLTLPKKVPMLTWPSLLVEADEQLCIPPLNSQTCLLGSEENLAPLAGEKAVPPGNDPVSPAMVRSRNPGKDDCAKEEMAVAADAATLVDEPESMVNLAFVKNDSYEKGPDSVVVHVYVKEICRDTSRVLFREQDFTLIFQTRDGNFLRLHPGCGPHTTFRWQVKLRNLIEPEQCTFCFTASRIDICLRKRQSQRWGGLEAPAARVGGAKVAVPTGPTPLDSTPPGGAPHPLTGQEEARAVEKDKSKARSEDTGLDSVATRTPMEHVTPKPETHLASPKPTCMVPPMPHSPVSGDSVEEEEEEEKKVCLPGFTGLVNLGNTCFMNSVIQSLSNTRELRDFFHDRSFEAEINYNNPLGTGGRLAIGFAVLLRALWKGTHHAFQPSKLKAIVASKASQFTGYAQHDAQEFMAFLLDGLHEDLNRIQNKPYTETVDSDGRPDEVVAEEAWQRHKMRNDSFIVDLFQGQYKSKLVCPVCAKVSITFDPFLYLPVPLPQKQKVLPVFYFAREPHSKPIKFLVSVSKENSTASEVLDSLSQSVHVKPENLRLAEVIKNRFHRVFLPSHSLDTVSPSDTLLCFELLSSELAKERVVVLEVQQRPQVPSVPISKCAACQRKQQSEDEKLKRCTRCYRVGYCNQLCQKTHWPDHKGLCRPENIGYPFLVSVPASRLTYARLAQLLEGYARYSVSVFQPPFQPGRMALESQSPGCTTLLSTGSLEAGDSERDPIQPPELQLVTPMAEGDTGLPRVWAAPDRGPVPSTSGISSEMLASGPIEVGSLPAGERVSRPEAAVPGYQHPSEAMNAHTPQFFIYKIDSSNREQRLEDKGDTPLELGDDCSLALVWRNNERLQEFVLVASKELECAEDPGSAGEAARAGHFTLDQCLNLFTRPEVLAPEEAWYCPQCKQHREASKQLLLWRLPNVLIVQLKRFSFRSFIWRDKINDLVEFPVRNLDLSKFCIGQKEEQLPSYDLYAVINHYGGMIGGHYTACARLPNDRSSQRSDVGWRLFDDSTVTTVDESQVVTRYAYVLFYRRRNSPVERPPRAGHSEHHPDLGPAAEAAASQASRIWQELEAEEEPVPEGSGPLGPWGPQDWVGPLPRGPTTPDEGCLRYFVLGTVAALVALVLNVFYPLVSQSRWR
Assay: USP19 fluorescence polarisation (FP) assay, Ubiquitin-Lys-TAMRA substrate
Type: biochemical
Conditions: average of at least two duplicate experiments
How it was run: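 Full-length human USP19 (added at 2.5 nM) was preincubated 30 min at RT with inhibitor (serial dilutions 200 μM to 2 μM) in 50 mM HEPES pH 7.4, 150 mM NaCl, 5 mM DTT, 0.05% BSA, 0.05% CHAPS. Ubiquitin-Lys-TAMRA isopeptide substrate (added at 500 nM) started the reaction, and FP (Ex 530/Em 575 nm) was read every 15 min over 90 min. IC50 came from non-linear regression of signal normalised to no-compound control, averaged over at least two duplicate experiments.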

SMILES | IC50
CC(C)(C)OC(=O)CN[C@@H]1CCN(C(=O)N2CC[C@@H](Cn3cnc(-c4ccccc4)cc3=O)C3(CCCC3)C2)[C@H](c2cc(F)ccc2F)C1 [Example 154, tert-Butyl ((2S,4R)-2-(2,5-difluorophenyl)-1-((R)-10-((6-oxo-4-phenylpyrimidin-1(6H)-yl)methyl)-7-azaspiro[4.5]decane-7-carbonyl)piperidin-4-yl)glycinate] | < 0.01 µM
CCN[C@@H]1CCN(C(=O)N2CC[C@@H](Cn3cnc(-c4ccccc4)cc3=O)C3(CCCC3)C2)[C@H](c2cc(F)ccc2F)C1 [Example 156, 3-(((R)-7-((2S,4R)-2-(2,5-Difluorophenyl)-4-(ethylamino)piperidine-1-carbonyl)-7-azaspiro[4.5]decan-10-yl)methyl)-6-phenylpyrimidin-4(3H)-one] | < 0.01 µM
O=C(O)CN[C@@H]1CCN(C(=O)N2CC[C@@H](Cn3cnc(-c4ccccc4)cc3=O)C3(CCCC3)C2)[C@H](c2cc(F)ccc2F)C1 [Example 158] | < 0.01 µM
CN[C@@H]1CCN(C(=O)N2CC[C@@H](CN3CCOCC3=O)C3(CCCC3)C2)[C@H](c2cc(F)ccc2F)C1 [Example 159, 4-(((R)-7-((2S,4R)-2-(2,5-Difluorophenyl)-4-(methylamino)piperidine-1-carbonyl)-7-azaspiro[4.5]decan-10-yl)methyl)morpholin-3-one] | < 0.01 µM
CC(C)N[C@@H]1CCN(C(=O)N2CC[C@@H](Cn3cnc(-c4ccccc4)cc3=O)C3(CCCC3)C2)[C@H](c2cc(F)ccc2F)C1 [Example 160, 3-(((R)-7-((2S,4R)-2-(2,5-Difluorophenyl)-4-(isopropylamino)piperidine-1-carbonyl)-7-azaspiro[4.5]decan-10-yl)methyl)-6-phenylpyrimidin-4(3H)-one] | < 0.01 µM
O=C(N1CC[C@@H](Cn2cnc(-c3ccccc3)cc2=O)C2(CCCC2)C1)N1CC[C@@H](NCCO)C[C@H]1c1ccccc1 [Example 161, 3-(((R)-7-((2S,4R)-4-((2-Hydroxyethyl)amino)-2-phenylpiperidine-1-carbonyl)-7-azaspiro[4.5]decan-10-yl)methyl)-6-phenylpyrimidin-4(3H)-one] | < 0.01 µM
O=C(N[C@@H]1CCN(C(=O)N2CC[C@@H](Cn3cnc(-c4ccccc4)cc3=O)C3(CCCC3)C2)[C@H](c2cc(F)ccc2F)C1)c1ccccn1 [Example 165, N-((2S,4R)-2-(2,5-Difluorophenyl)-1-((R)-10-((6-oxo-4-phenylpyrimidin-1(6H)-yl)methyl)-7-azaspiro[4.5]decane-7-carbonyl)piperidin-4-yl)picolinamide] | 0.01 to 0.1 µM
CN[C@@H]1CCN(C(=O)N2CC[C@@H](CN3CCC(c4ccccc4)=CC3=O)C3(CCCC3)C2)[C@H](c2cc(F)ccc2F)C1 [Example 168, 1-(((R)-7-((2S,4R)-2-(2,5-Difluorophenyl)-4-(methylamino)piperidine-1-carbonyl)-7-azaspiro[4.5]decan-10-yl)methyl)-4-phenyl-5,6-dihydropyridin-2(1H)-one] | < 0.01 µM
O=C(N1CC[C@@H](Cn2cnc(-c3ccccc3)cc2=O)C2(CCCC2)C1)N1CC[C@@H](NCc2ncccn2)C[C@H]1c1cc(F)ccc1F [Example 169, 3-(((R)-7-((2S,4R)-2-(2,5-Difluorophenyl)-4-((pyrimidin-2-ylmethyl)amino)piperidine-1-carbonyl)-7-azaspiro[4.5]decan-10-yl)methyl)-6-phenylpyrimidin-4(3H)-one] | < 0.01 µM
O=C(N1CC[C@@H](Cn2cnc(-c3ccccc3)cc2=O)C2(CCCC2)C1)N1CC[C@@H](NCc2ccncn2)C[C@H]1c1cc(F)ccc1F [Example 170, 3-(((R)-7-((2S,4R)-2-(2,5-Difluorophenyl)-4-((pyrimidin-4-ylmethyl)amino)piperidine-1-carbonyl)-7-azaspiro[4.5]decan-10-yl)methyl)-6-phenylpyrimidin-4(3H)-one] | < 0.01 µM
O=C(N1CC[C@@H](Cn2cnc3ccc(F)cc3c2=O)C2(CCCC2)C1)N1CC[C@@H](N2CCOCC2)C[C@H]1c1ccccc1 [Example 171, 6-Fluoro-3-(((R)-7-((2S,4R)-4-morpholino-2-phenylpiperidine-1-carbonyl)-7-azaspiro[4.5]decan-10-yl)methyl)quinazolin-4(3H)-one hydrochloride] | 0.1 to 1 µM

The next lines start with the values.

IC50 | SMILES
< 0.01 µM | CC(=O)N[C@@H]1CCN(C(=O)N2CC[C@@H](Cn3cnc(-c4ccccc4)cc3=O)C3(CCCC3)C2)[C@H](c2cc(F)ccc2F)C1 [Example 155, N-((2S,4R)-2-(2,5-Difluorophenyl)-1-((R)-10-((6-oxo-4-phenylpyrimidin-1(6H)-yl)methyl)-7-azaspiro[4.5]decane-7-carbonyl)piperidin-4-yl)acetamide]
< 0.01 µM | O=C(N1CC[C@@H](Cn2cnc3ccc(F)cc3c2=O)C2(CCCC2)C1)N1CC[C@@H](NCC(F)F)C[C@H]1c1cc(F)ccc1F [Example 157, 3-(((R)-7-((2S,4R)-4-((2,2-Difluoroethyl)amino)-2-(2,5-difluorophenyl)piperidine-1-carbonyl)-7-azaspiro[4.5]decan-10-yl)methyl)-6-fluoroquinazolin-4(3H)-one]
< 0.01 µM | CCN[C@@H]1CCN(C(=O)N2CC[C@@H](Cn3cnc4ccc(F)cc4c3=O)C3(CCCC3)C2)[C@H](c2cc(F)ccc2F)C1 [Example 162, 3-(((R)-7-((2S,4R)-2-(2,5-Difluorophenyl)-4-(ethylamino)piperidine-1-carbonyl)-7-azaspiro[4.5]decan-10-yl)methyl)-6-fluoroquinazolin-4(3H)-one]
< 0.01 µM | CN[C@@H]1CCN(C(=O)N2CC[C@@H](Cn3cnc(C4CC4)cc3=O)C3(CCCC3)C2)[C@H](c2cc(F)ccc2F)C1 [Example 163, 6-Cyclopropyl-3-(((R)-7-((2S,4R)-2-(2,5-difluorophenyl)-4-(methylamino)piperidine-1-carbonyl)-7-azaspiro[4.5]decan-10-yl)methyl)pyrimidin-4(3H)-one]
< 0.01 µM | O=C(N[C@@H]1CCN(C(=O)N2CC[C@@H](Cn3cnc(-c4ccccc4)cc3=O)C3(CCCC3)C2)[C@H](c2cc(F)ccc2F)C1)C1CC1 [Example 164, N-((2S,4R)-2-(2,5-Difluorophenyl)-1-((R)-10-((6-oxo-4-phenylpyrimidin-1(6H)-yl)methyl)-7-azaspiro[4.5]decane-7-carbonyl)piperidin-4-yl)cyclopropanecarbox-amide]
< 0.01 µM | CN[C@@H]1CCN(C(=O)N2CC[C@@H](Cn3cnc4ccc(F)cc4c3=O)C3(CCCC3)C2)[C@H](c2cccc(F)c2F)C1 [Example 166, 3-(((R)-7-((2S,4R)-2-(2,3-Difluorophenyl)-4-(methylamino)piperidine-1-carbonyl)-7-azaspiro[4.5]decan-10-yl)methyl)-6-fluoroquinazolin-4(3H)-one]
< 0.01 µM | CN[C@@H]1CCN(C(=O)N2CC[C@@H](Cn3cnc4ccc(F)cc4c3=O)C3(CCCC3)C2)[C@H](c2cccc(F)c2)C1 [Example 167, 6-Fluoro-3-(((R)-7-((2S,4R)-2-(3-fluorophenyl)-4-(methylamino)piperidine-1-carbonyl)-7-azaspiro[4.5]decan-10-yl)methyl)quinazolin-4(3H)-one]
< 0.01 µM | CC(=O)N[C@@H]1CCN(C(=O)N2CC[C@@H](Cn3cnc4ccc(F)cc4c3=O)C3(CCCC3)C2)[C@H](c2cc(F)ccc2F)C1 [Example 172, N-((2S,4R)-2-(2,5-Difluorophenyl)-1-((R)-10-((6-fluoro-4-oxoquinazolin-3(4H)-yl)methyl)-7-azaspiro[4.5]decane-7-carbonyl)piperidin-4-yl)acetamide]
0.01 to 0.1 µM | O=C(N[C@@H]1CCN(C(=O)N2CC[C@@H](Cn3cnc4ccc(F)cc4c3=O)C3(CCCC3)C2)[C@H](c2cc(F)ccc2F)C1)C1CC1 [Example 173, N-((2S,4R)-2-(2,5-Difluorophenyl)-1-((R)-10-((6-fluoro-4-oxoquinazolin-3(4H)-yl)methyl)-7-azaspiro[4.5]decane-7-carbonyl)piperidin-4-yl)cyclopropanecarboxamide]
